Laboratory results from ChEMBL document CHEMBL1147800, “Osteoblast differentiation stimulating activity of biflavonoids from Cephalotaxus koreana” (2006).
Calls of active or inactive are those of the source. No cut-off for these calls is given here.

Columns and labels:
Osteoblast [1] = assay: Increase in ALP activity in mouse primary osteoblasts at 1 uM relative to control; format: functional
Osteoblast [2] = assay: Increase in ALP activity in mouse primary osteoblasts at 10 uM relative to control; format: functional
Osteoblast [3] = assay: Increase in ALP activity in mouse primary osteoblasts at 20 uM relative to control; format: functional
Osteoblast [4] = assay: Cytotoxicity against mouse primary osteoblasts at 20 uM by MTT assay; format: functional, cell-based
Osteoblast [5] = assay: Effect on mineralization in mouse primary osteoblasts by measuring calcium deposition; format: functional, cell-based
Osteoblast [6] = assay: Increase in collagen synthesis in mouse primary osteoblasts; format: functional, cell-based
Osteoblast [7] = assay: Increase in collagen synthesis in mouse primary osteoblasts at 10 uM relative to control; format: functional

COc1cc(O)c2c(=O)cc(-c3ccc(OC)c(-c4c(OC)cc(O)c5c(=O)cc(-c6ccc(O)cc6)oc45)c3)oc2c1 was tested. Which Activity (Osteoblast [1]) did it give?
Its Activity is 108.4%.

And the Activity (Osteoblast [2])?
The Activity was 129.7%.

What about the Activity (Osteoblast [3]) of the same compound?
Its Activity is 122%.

With COc1ccc(-c2cc(=O)c3c(O)cc(O)cc3o2)cc1-c1c(OC)cc(O)c2c(=O)cc(-c3ccc(O)cc3)oc12 as the compound, how does the Activity (Osteoblast [4]) read?
The Activity was “Active”.

What about the Activity (Osteoblast [1]) of the same compound?
The Activity was 101.1%.

What about the Activity (Osteoblast [2]) of the same compound?
The Activity was 113%.

What about the Activity (Osteoblast [3]) of the same compound?
Its Activity is 73.5%.

For COc1ccc(-c2cc(=O)c3c(O)cc(OC)c(-c4cc(-c5cc(=O)c6c(O)cc(OC)cc6o5)ccc4OC)c3o2)cc1, which Activity (Osteoblast [5]) is on record?
Its Activity is “Active”.

And the Activity (Osteoblast [1])?
Its Activity is 105.1%.

And the Activity (Osteoblast [2])?
The Activity was 147.3%.

And the Activity (Osteoblast [3])?
The Activity was 149.5%.

What about the Activity (Osteoblast [6]) of the same compound?
The Activity was “Active”.

What does the source list for COc1ccc(-c2cc(=O)c3c(O)cc(O)cc3o2)cc1-c1c(O)cc(O)c2c(=O)cc(-c3ccc(O)cc3)oc12 [BILOBETIN]?
Activity (Osteoblast [5]): Active; Activity (Osteoblast [1]): 100.9%; Activity (Osteoblast [2]): 131.9%; Activity (Osteoblast [3]): 130.6%

Which Activity (Osteoblast [1]) does the source give for O=c1c(-c2ccc(O)cc2)coc2cc(O)ccc12 [DAIDZEIN] here?
The Activity was 107.8%.

What about the Activity (Osteoblast [2]) of the same compound?
Its Activity is 132.8%.

What about the Activity (Osteoblast [3]) of the same compound?
Its Activity is 128.1%.

How did the Activity (Osteoblast [4]) turn out when COc1cc(O)c2c(=O)cc(-c3ccc(OC)c(-c4c(O)cc(O)c5c(=O)cc(-c6ccc(O)cc6)oc45)c3)oc2c1 [GINKGETIN] was run?
Its Activity is “Active”.

What about the Activity (Osteoblast [1]) of the same compound?
The Activity was 116.8%.

And the Activity (Osteoblast [2])?
The Activity was 69.3%.

And the Activity (Osteoblast [3])?
The Activity was 39.9%.

How did the Activity (Osteoblast [7]) turn out when COc1ccc(-c2cc(=O)c3c(O)cc(O)c(-c4cc(-c5cc(=O)c6c(O)cc(OC)cc6o5)ccc4OC)c3o2)cc1 [SCIADOPITISIN] was run?
Its Activity is 180%.

What about the Activity (Osteoblast [5]) of the same compound?
Its Activity is “Active”.

And the Activity (Osteoblast [1])?
Its Activity is 121.1%.

What about the Activity (Osteoblast [2]) of the same compound?
The Activity was 149%.

What about the Activity (Osteoblast [3]) of the same compound?
The Activity was 153%.
